Assays:
Assay in all cases: Glasshouse herbicide test, pre- and post-emergence, percentage damage
Assay type in all cases: in vivo
[1] = test system: Alopecurus myosuroides (ALOMY); settings: 250 g/h, evaluated after 13 days, percentage damage on five point scale; for ALOMY POST: post-emergence; for ALOMY PRE: pre-emergence
Experimental: (§1) Seeds of a variety of test species are sown in standard soil in pots (Lolium perenne (LOLPE), Setaria faberi (SETFA), Alopecurus myosuroides (ALOMY), Echinochloa crus-galli (ECHCG), Avena fatua (AVEFA)). After cultivation for one day (pre-emergence) or after 8 days cultivation (post-emergence) under controlled conditions in a glasshouse (at 24/16° C., day/night; 14 hours light; 65% humidity), the plants are sprayed with an aqueous spray solution derived from the formulation of the technical active ingredient in acetone/water (50:50) solution containing 0.5% Tween 20 (polyoxyethelyene sorbitan monolaurate, CAS RN 9005-64-5). Compounds are applied at […]. The test plants are then grown in a glasshouse under controlled conditions in a glasshouse (at 24/16° C., day/night; 14 hours light; 65% humidity) and watered twice daily. After 13 days for pre and post-emergence, the test is evaluated for the percentage damage caused to the plant. The biological activities are shown in the following table on a five point scale (5=80-100%; 4=60-79%; 3=40-59%; 2=20-39%; 1=0-19%).

Setaria faberi (SETFA) = settings: 250 g/h, evaluated after 13 days, percentage damage on five point scale; for SETFA POST: post-emergence; for SETFA PRE: pre-emergence
Experimental: as §1

Avena fatua (AVEFA) = settings: 250 g/h, evaluated after 13 days, percentage damage on five point scale; for AVEFA POST: post-emergence; for AVEFA PRE: pre-emergence
Experimental: as §1

[2] = test system: Echinochloa crus-galli (ECHCG); settings: 250 g/h, evaluated after 13 days, percentage damage on five point scale; for ECHCG POST: post-emergence; for ECHCG PRE: pre-emergence
Experimental: as §1

Lolium perenne (LOLPE) = settings: 250 g/h, evaluated after 13 days, percentage damage on five point scale; for LOLPE POST: post-emergence; for LOLPE PRE: pre-emergence
Experimental: as §1

SMILES: Cc1cc(-c2ccc(C#N)cn2)cc(C)c1C1C(=O)CC2(CCN(C(=O)C(C)(C)C)CC2)CC1=O [Compound A30]
- ALOMY POST [1]: 5 (5=80-100%)
- ALOMY PRE [1]: 5 (5=80-100%)
- SETFA POST (Setaria faberi (SETFA)): 5 (5=80-100%)
- SETFA PRE (Setaria faberi (SETFA)): 5 (5=80-100%)
- AVEFA POST (Avena fatua (AVEFA)): 5 (5=80-100%)
- AVEFA PRE (Avena fatua (AVEFA)): 3 (3=40-59%)
- ECHCG POST [2]: 5 (5=80-100%)
- ECHCG PRE [2]: 5 (5=80-100%)
- LOLPE POST (Lolium perenne (LOLPE)): 5 (5=80-100%)
- LOLPE PRE (Lolium perenne (LOLPE)): 5 (5=80-100%)

SMILES: Cc1cc(-c2ccc(C#N)cn2)cc(C)c1C1C(=O)CC2(CCN(C(=O)NC(=O)c3ccccn3)CC2)CC1=O [Compound A31]
- ALOMY POST [1]: 5 (5=80-100%)
- ALOMY PRE [1]: 1 (1=0-19%)
- SETFA POST (Setaria faberi (SETFA)): 5 (5=80-100%)
- SETFA PRE (Setaria faberi (SETFA)): 1 (1=0-19%)
- AVEFA POST (Avena fatua (AVEFA)): 5 (5=80-100%)
- ECHCG POST [2]: 5 (5=80-100%)
- ECHCG PRE [2]: 3 (3=40-59%)
- LOLPE POST (Lolium perenne (LOLPE)): 5 (5=80-100%)
- LOLPE PRE (Lolium perenne (LOLPE)): 1 (1=0-19%)

SMILES: CCS(=O)(=O)N1CCC2(CC1)CC(=O)C(c1c(C)cc(-c3ncc(F)cn3)cc1C)C(=O)C2 [Compound A32]
- ALOMY POST [1]: 5 (5=80-100%)
- ALOMY PRE [1]: 5 (5=80-100%)
- SETFA POST (Setaria faberi (SETFA)): 5 (5=80-100%)
- SETFA PRE (Setaria faberi (SETFA)): 5 (5=80-100%)
- AVEFA POST (Avena fatua (AVEFA)): 5 (5=80-100%)
- AVEFA PRE (Avena fatua (AVEFA)): 5 (5=80-100%)
- ECHCG POST [2]: 5 (5=80-100%)
- ECHCG PRE [2]: 5 (5=80-100%)
- LOLPE POST (Lolium perenne (LOLPE)): 5 (5=80-100%)
- LOLPE PRE (Lolium perenne (LOLPE)): 5 (5=80-100%)

SMILES: Cc1cc(-c2ncc(F)cn2)cc(C)c1C1C(=O)CC2(CCN(C(=O)c3ccccc3)CC2)CC1=O [Compound A33]
- ALOMY POST [1]: 5 (5=80-100%)
- ALOMY PRE [1]: 5 (5=80-100%)
- SETFA POST (Setaria faberi (SETFA)): 5 (5=80-100%)
- SETFA PRE (Setaria faberi (SETFA)): 5 (5=80-100%)
- AVEFA POST (Avena fatua (AVEFA)): 5 (5=80-100%)
- AVEFA PRE (Avena fatua (AVEFA)): 5 (5=80-100%)
- ECHCG POST [2]: 5 (5=80-100%)
- ECHCG PRE [2]: 5 (5=80-100%)
- LOLPE POST (Lolium perenne (LOLPE)): 5 (5=80-100%)
- LOLPE PRE (Lolium perenne (LOLPE)): 5 (5=80-100%)

SMILES: Cc1cc(-c2ncc(F)cn2)cc(C)c1C1C(=O)CC2(CCN(C(=O)c3ccccn3)CC2)CC1=O [Compound A34]
- ALOMY POST [1]: 5 (5=80-100%)
- ALOMY PRE [1]: 5 (5=80-100%)
- SETFA POST (Setaria faberi (SETFA)): 5 (5=80-100%)
- SETFA PRE (Setaria faberi (SETFA)): 5 (5=80-100%)
- AVEFA POST (Avena fatua (AVEFA)): 5 (5=80-100%)
- AVEFA PRE (Avena fatua (AVEFA)): 5 (5=80-100%)
- ECHCG POST [2]: 5 (5=80-100%)
- ECHCG PRE [2]: 5 (5=80-100%)
- LOLPE POST (Lolium perenne (LOLPE)): 5 (5=80-100%)
- LOLPE PRE (Lolium perenne (LOLPE)): 5 (5=80-100%)

SMILES: COCC(=O)N1CCC2(CC1)CC(=O)C(c1c(C)cc(-c3ncc(F)cn3)cc1C)C(=O)C2 [Compound A35]
- ALOMY POST [1]: 5 (5=80-100%)
- ALOMY PRE [1]: 5 (5=80-100%)
- SETFA POST (Setaria faberi (SETFA)): 5 (5=80-100%)
- SETFA PRE (Setaria faberi (SETFA)): 5 (5=80-100%)
- AVEFA POST (Avena fatua (AVEFA)): 5 (5=80-100%)
- AVEFA PRE (Avena fatua (AVEFA)): 5 (5=80-100%)
- ECHCG POST [2]: 5 (5=80-100%)
- ECHCG PRE [2]: 5 (5=80-100%)
- LOLPE POST (Lolium perenne (LOLPE)): 5 (5=80-100%)
- LOLPE PRE (Lolium perenne (LOLPE)): 5 (5=80-100%)

SMILES: Cc1cc(-c2ncc(F)cn2)cc(C)c1C1C(=O)CC2(CCN(C(=O)NC(C)(C)C)CC2)CC1=O [Compound A36]
- ALOMY POST [1]: 5 (5=80-100%)
- ALOMY PRE [1]: 5 (5=80-100%)
- SETFA POST (Setaria faberi (SETFA)): 5 (5=80-100%)
- SETFA PRE (Setaria faberi (SETFA)): 5 (5=80-100%)
- AVEFA POST (Avena fatua (AVEFA)): 5 (5=80-100%)
- AVEFA PRE (Avena fatua (AVEFA)): 5 (5=80-100%)
- ECHCG PRE [2]: 5 (5=80-100%)
- LOLPE POST (Lolium perenne (LOLPE)): 5 (5=80-100%)
- LOLPE PRE (Lolium perenne (LOLPE)): 5 (5=80-100%)

SMILES: Cc1cc(-c2ncc(F)cn2)cc(C)c1C1C(=O)CC2(CCN(C(=O)NC(=O)C(C)(C)C)CC2)CC1=O [Compound A37]
- ALOMY POST [1]: 5 (5=80-100%)
- ALOMY PRE [1]: 5 (5=80-100%)
- SETFA POST (Setaria faberi (SETFA)): 5 (5=80-100%)
- SETFA PRE (Setaria faberi (SETFA)): 5 (5=80-100%)
- AVEFA POST (Avena fatua (AVEFA)): 5 (5=80-100%)
- AVEFA PRE (Avena fatua (AVEFA)): 5 (5=80-100%)
- ECHCG PRE [2]: 5 (5=80-100%)
- LOLPE POST (Lolium perenne (LOLPE)): 5 (5=80-100%)
- LOLPE PRE (Lolium perenne (LOLPE)): 5 (5=80-100%)

SMILES: Cc1cc(-c2ncc(F)cn2)cc(C)c1C1C(=O)CC2(CCN(C(=O)C3CC3)CC2)CC1=O [Compound A38]
- ALOMY POST [1]: 5 (5=80-100%)
- ALOMY PRE [1]: 5 (5=80-100%)
- SETFA POST (Setaria faberi (SETFA)): 5 (5=80-100%)
- SETFA PRE (Setaria faberi (SETFA)): 5 (5=80-100%)
- AVEFA POST (Avena fatua (AVEFA)): 5 (5=80-100%)
- AVEFA PRE (Avena fatua (AVEFA)): 5 (5=80-100%)
- ECHCG POST [2]: 5 (5=80-100%)
- ECHCG PRE [2]: 5 (5=80-100%)
- LOLPE POST (Lolium perenne (LOLPE)): 5 (5=80-100%)
- LOLPE PRE (Lolium perenne (LOLPE)): 5 (5=80-100%)

SMILES: Cc1cc(-c2ncc(F)cn2)cc(C)c1C1C(=O)CC2(CCN(C(=O)C(F)F)CC2)CC1=O [Compound A39]
- ALOMY POST [1]: 5 (5=80-100%)
- ALOMY PRE [1]: 5 (5=80-100%)
- SETFA POST (Setaria faberi (SETFA)): 5 (5=80-100%)
- SETFA PRE (Setaria faberi (SETFA)): 5 (5=80-100%)
- AVEFA POST (Avena fatua (AVEFA)): 5 (5=80-100%)
- AVEFA PRE (Avena fatua (AVEFA)): 5 (5=80-100%)
- ECHCG POST [2]: 5 (5=80-100%)
- ECHCG PRE [2]: 5 (5=80-100%)
- LOLPE POST (Lolium perenne (LOLPE)): 5 (5=80-100%)
- LOLPE PRE (Lolium perenne (LOLPE)): 5 (5=80-100%)
